Legend:
Aβ42 [1] = test: Screening for γ-secretase-modulating activity, Method 1: Aβ42 sandwich ELISA on SKNBE2 cell media; type: cell-based; details: SKNBE2 cells carrying APP 695 wild type
How it was run: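 SKNBE2 cells expressing wild-type APP695 were treated with compound for 18 h in Ultraculture/1% glutamine. Secreted Aβ42 was quantified by sandwich ELISA (C-terminal capture, biotinylated 3D6, TMB, 450 nm), with WST-1 used as a toxicity check. IC50 was derived from 4-parameter fits of % inhibition or % of untreated control.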

Aβtotal [2] = test: Screening for γ-secretase-modulating activity, Method 1: Aβtotal sandwich ELISA on SKNBE2 cell media; type: cell-based; details: SKNBE2 cells carrying APP 695 wild type
How it was run: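 SKNBE2 cells expressing wild-type APP 695 were treated with compound for 18 hours. Aβtotal in the medium was measured by sandwich ELISA (6E10 capture, biotinylated 4G8 detection, fluorogenic peroxidase read-out). IC50 came from a 4-parameter fit of % inhibition with top/bottom fixed at 100/0 and Hill slope 1, or as averaged IC50 from % of untreated control.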

Aβ42 [3] = test: In vivo efficacy Method 1: brain soluble Aβ42 by ELISA; parameters: species or system mouse; details: Table 4a, single oral dose, overnight fasted animals, sacrificed after 4 h, soluble fraction of brain homogenates
Source text: (§1) To determine whether acute administration of an Aβ42 lowering agent would reduce Aβ42 levels in vivo, non-transgenic rodents, e.g. mice or rats were used. Alternatively, two to three month old Tg2576 mice expressing APP695 containing the “Swedish” variant can be used or a transgenic mouse model developed by Dr. Fred Van Leuven (K.U. Leuven, Belgium) and co-workers, with neuron-specific expression of a clinical mutant of the human amyloid precursor protein [V717I] […] Young transgenic mice have high levels of Aβ in the brain but no detectable Aβ deposition. At approximately 6-8 months of age, the transgenic mice start to display spontaneous, progressive accumulation of β-amyloid (Aβ) in the brain, eventually resulting in amyloid plaques within the subiculum, hippocampus and cortex. Animals treated with the Aβ42 lowering agent were examined and compared to those untreated or treated with vehicle and brain levels of soluble Aβ42 and total Aβ would be quantitated by standard techniques, for example, using ELISA.
(§2) A typical protocol for measuring Aβ42 lowering in vivo is shown but it is only one of many variations that could be used to optimize the levels of detectable Aβ. For example, Aβ42 lowering compounds were formulated in 20% of Captisol® (a sulfobutyl ether of β-cyclodextrin) in water or 20% hydroxypropyl β cyclodextrin. The Aβ42 lowering agents were administered as a single oral dose or by any acceptable route of administration to overnight fasted animals. After 4 h, the animals were sacrificed and Aβ42 levels were analysed.
(§3) Blood was collected by decapitation and exsanguinations in EDTA-treated collection tubes. Blood was centrifuged at 1900 g for 10 minutes (min) at 4° C. and the plasma recovered and flash frozen for later analysis. The brain was removed from the cranium and hindbrain. The cerebellum was removed and the left and right hemisphere were separated. The left hemisphere was stored at −18° C. for quantitative analysis of test compound levels. The right hemisphere was rinsed with phosphate-buffered saline (PBS) buffer and immediately frozen on dry ice and stored at −80° C. until homogenization for biochemical assays.
(§4) All samples were sonicated for 30 seconds on ice at 20% power output (pulse mode). Homogenates were centrifuged at 221.300×g for 50 min. The resulting high speed supernatants were then transferred to fresh tubes and were optionally further purified before the next step. A portion of the supernatant was neutralized with 10% 0.5 M Tris-HCl and this was used to quantify Aβtotal.
(§5) The obtained supernatants were purified with Water Oasis HLB reverse phase columns (Waters Corp., Milford, Mass.) to remove non-specific immunoreactive material from the brain lysates prior subsequent Aβ detection. Using a vacuum manifold, all solutions were passed through the columns at a rate of approximately 1 ml per min, so the vacuum pressure was adjusted accordingly throughout the procedure. Columns were preconditioned with 1 ml of 100% MeOH, before equilibration with 1 ml of H2O, Non-neutralized brain lysates were loaded onto the columns. The loaded samples were then washed twice with the first wash performed with 1 ml of 5% MeOH, and the second wash with 1 ml of 30% MeOH. Finally, the Aβ was eluted from the columns and into 100×30 mm glass tubes, with a solution of 90% MeOH with 2% NH4OH. The eluate was then transferred into 1.5 ml tubes and concentrated in a speed-vac concentrator on high heat for about 1.5-2 h at 70° C. The concentrated Aβ was then resuspended in UltraCULTURE General Purpose Serum-Free Medium (Cambrex Corp., Walkersville, Md.) plus Protease Inhibitors added.
To quantify the amount of Aβ42 in the soluble fraction of the brain homogenates, commercially available Enzyme-Linked-Immunosorbent-Assay (ELISA) kits were used (e.g. Innotest® β-Amyloid(1-42), Innogenetics N.V., Ghent, Belgium). The Aβ42 ELISA was performed using the plate provided with the kit only.

Aβtotal [4] = test: In vivo efficacy Method 1: brain soluble Aβtotal by ELISA; parameters: species or system mouse; details: Table 4a, single oral dose, overnight fasted animals, sacrificed after 4 h, soluble fraction of brain homogenates
Source text: as §1, §2, §3, §4
as §5, with “added. […]” for “added.”

Aβ42 [5] = test: Screening for γ-secretase-modulating activity, Method 2: Aβ42 Alphalisa on SKNBE2 cell supernatant; type: cell-based; details: Homo sapiens, Method 2, Table 3c, SKNBE2 cells carrying APP 695 wild type, overnight incubation
How it was run: (§6)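 SKNBE2 cells expressing wild-type APP695, plated at 10^4 cells/well with compound at several concentrations and incubated overnight at 37° C. Aβ42 (C-terminal capture, N-terminal biotinylated detection) and Aβtotal (N-terminal/4G8 pair) measured in supernatant by AlphaLISA. IC50 from 4-parameter fit of percent of compound-free control.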

Aβtotal [6] = test: Screening for γ-secretase-modulating activity, Method 2: Aβtotal Alphalisa on SKNBE2 cell supernatant; type: cell-based; details: Homo sapiens, Method 2, Table 3c, SKNBE2 cells carrying APP 695 wild type, overnight incubation
How it was run: as §6

[7] = Homo sapiens, Table 3a, 18 hours, XLfit, top/bottom fixed to 100 and 0, hill slope 1
[8] = Homo sapiens, Table 3b, non-linear regression of % of control, averaged IC50 values
[9] = Table 3a, 18 hours, XLfit, top/bottom fixed to 100 and 0, hill slope 1
[10] = Table 3b, non-linear regression of % of control, averaged IC50 values

SMILES	IC50 (Aβ42 [1]; [7])	IC50 (Aβ42 [1]; [8])	IC50 (Aβtotal [2]; [7])	IC50 (Aβtotal [2]; [8])	Aβ42 (% Ctrl) _Mean (Aβ42 [3])	Aβtotal (% Ctrl) _Mean (Aβtotal [4])	IC50 (Aβ42 [1]; [9])	IC50 (Aβ42 [1]; [10])	IC50 (Aβtotal [2]; [9])	IC50 (Aβtotal [2]; [10])	IC50 (Aβ42 [5])	IC50 (Aβtotal [6])
COc1cc(Nc2cccc3c2nc(-c2ccc(F)cc2F)n3C)ccc1-n1cnc(C)c1 [Compound 3]	13 nM	13 nM	> 1000 nM	> 3000 nM	46 % Ctrl	87 % Ctrl						
Cc1cn(-c2ccc(Nc3cccc4c3nc(-c3ccc(F)cc3)n4C)nc2)cn1 [Compound 5]	31 nM	30 nM	> 3000 nM	> 3000 nM	62 % Ctrl	94 % Ctrl						
Cc1cn(-c2ccc(Nc3cccc4c3nc(-c3ccc(F)cc3)n4C)cc2)cn1 [Compound 7]	22 nM	23 nM	> 1000 nM	> 3000 nM	58 % Ctrl	89 % Ctrl						
COc1cc(Nc2cccc3oc(CC(C)C)nc23)ccc1-n1cnc(C)c1 [Compound 18]	101 nM	102 nM	> 5000 nM	> 10000 nM	81 % Ctrl	95 % Ctrl						
COc1cc(Nc2cccc3c2nc(C2CCCCC2)n3C)ccc1-n1cnc(C)c1 [Compound 38]					72 % Ctrl	101 % Ctrl	104 nM	126 nM	> 3000 nM	> 3000 nM		
COc1cc(Nc2cccc3c2nc(N2CC(C)OC(C)C2)n3C)ccc1-n1cnc(C)c1 (stereo not shown) [Compound 44]					91 % Ctrl	101 % Ctrl	135 nM	135 nM	> 5000 nM	> 5000 nM		
COc1cc(Nc2cccc3[nH]c(-c4ccccc4C)nc23)ccc1-n1cnc(C)c1 [Compound 45]	15 nM	13 nM	> 1000 nM	> 3000 nM	93 % Ctrl	94 % Ctrl						
COCCn1c(-c2cccc(OC)c2)nc2c(Nc3ccc(-n4cnc(C)c4)c(OC)c3)cccc21.Cl.Cl [Compound 54]					71 % Ctrl	96 % Ctrl	20 nM	25 nM	> 1000 nM	> 3000 nM		
Cc1ncn(-c2ccc(Nc3cccc4c3nc(-c3ccc(F)cc3)n4C)cn2)n1 [Compound 70]					64 % Ctrl	99 % Ctrl	50 nM	37 nM	> 3000 nM	> 3000 nM		
COc1cc(Nc2cccc3c2nc(-c2ccc(F)cc2)n3C)ccc1-n1cnc(Br)c1 [Compound 71]					88 % Ctrl	102 % Ctrl	28 nM	28 nM	> 1000 nM	> 3000 nM		
Cc1ncn(-c2ccc(Nc3cccc4c3nc(-c3ccc(F)cc3)n4C(C)C)cc2F)n1.Cl.Cl [Compound 74]					86 % Ctrl	99 % Ctrl	65 nM	59 nM	> 3000 nM	> 3000 nM		
COc1cc(Nc2cccc3oc(-c4ccc(F)cc4)nc23)ccc1-n1cnc(C)c1 [Compound 80]					97 % Ctrl	102 % Ctrl	1850 nM	1740 nM	> 30000 nM	> 10000 nM		
COc1cc(Nc2cccc3oc(Cc4ccc(F)cc4)nc23)ccc1-n1cnc(C)c1 [Compound 82]					85 % Ctrl	96 % Ctrl	147 nM	141 nM	> 3000 nM	> 3000 nM		
COc1cc(-c2nc3c(Nc4ccc(-n5cnc(C)n5)c(OC)c4)cccc3n2C)ccc1Cl [Compound 85]					71 % Ctrl	93 % Ctrl	10 nM	10 nM	> 1000 nM	> 3000 nM		
COc1cc(Nc2cccc3c2nc(-c2ccc(F)cc2)n3C)ccc1-n1ncnc1C [Compound 91]					68 % Ctrl	94 % Ctrl	36 nM	33 nM	> 3000 nM	> 3000 nM		
Cc1cn(-c2ccc(Nc3cccc4c3nc(-c3ccc(F)cc3)n4C)nn2)cn1 [Compound 95]					85 % Ctrl	95 % Ctrl	331 nM	331 nM	> 10000 nM	> 10000 nM		
COc1cc(Nc2cccc3c2nc(-c2cccc(Cl)c2)n3C)ccc1-n1ncnc1C [Compound 96]					62 % Ctrl	88 % Ctrl	31 nM	24 nM	> 1000 nM	> 3000 nM		
Cc1ncnn1-c1ccc(Nc2nccc3c2nc(-c2ccc(F)cc2)n3C)cc1F [Compound 97]					96 % Ctrl	96 % Ctrl	435 nM	398 nM	> 3000 nM	> 10000 nM		
Cc1cn(-c2ccc(Nc3nccc4c3nc(-c3ccc(F)cc3F)n4C)cc2F)cn1 [Compound 104]					65 % Ctrl	110 % Ctrl	50 nM	44 nM	> 3000 nM	> 3000 nM		
COc1nc(Nc2cc(F)cc3c2nc(-c2ccc(F)cc2)n3C(C)C)ccc1-n1cnc(C)c1 [Compound 106]					87 % Ctrl	104 % Ctrl					4 nM	6170 nM

Source: patent US8772504B2, “Substituted benzoxazole, benzimidazole, oxazolopyridine and imidazopyridine derivatives as gamma secretase modulators” (Janssen Pharmaceuticals, Inc., priority 2009, dated 2014)
